Measurements from PubChem BioAssay (NCI).
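96-well plates; 48 h exposure; 5 concentrations. Endpoints by linear interpolation between flanking doses. Not reached: highest tested concentration assigned. The concentration for full growth arrest is given as TGI.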

Assays:
Experiment in all cases: NCI anticancer screen, dose series, 48 h
T-47D breast = system: T-47D breast
SF-539 CNS = system: SF-539 CNS
NCI-H226 lung = system: NCI-H226 lung
MDA-N = system: MDA-N
MDA-MB-435 = system: MDA-MB-435
CAKI-1 renal = system: CAKI-1 renal
M14 melanoma = system: M14 melanoma
SNB-19 CNS = system: SNB-19 CNS

Row | SMILES | TGI (T-47D breast) [µM] | TGI (SF-539 CNS) [µM] | TGI (NCI-H226 lung) [µM] | TGI (MDA-N) [µM] | TGI (MDA-MB-435) [µM] | TGI (CAKI-1 renal) [µM] | TGI (M14 melanoma) [µM] | TGI (SNB-19 CNS) [µM]
1 | CC(=O)N1N=C(c2ccc3ccccc3c2O)CC1C(=O)c1ccco1 (stereo unspecified) | > 100 | 83.8 | > 100 | > 100 | > 100 | > 100 | 57.7 | –
2 | O=C1CCCCC(=O)OC2(CCCCC2=O)CC1 (stereo unspecified) | > 100 | > 100 | > 100 | > 100 | > 100 | > 100 | > 100 | –
3 | CC1(CF)SCc2nc3ccccc3n21 (stereo unspecified) | > 100 | > 100 | > 100 | > 100 | > 100 | > 100 | > 100 | > 100
4 | CCOC(=O)c1ccc(N2C(=S)N(C(=O)c3ccccc3)C(=Nc3ccccc3)C2=Nc2ccccc2)cc1 | – | > 100 | 52.7 | > 100 | > 100 | > 100 | > 100 | > 100
5 | Cc1ccc2nc(Cl)c(/C=N/N3C(=O)/C(=C/c4ccccc4S)N=C3c3ccccc3)cc2c1 | > 100 | 43 | – | 40.5 | 31.8 | > 100 | 79.4 | > 100
6 | NC1=NS(=O)(=O)Nc2nc(-c3ccc([N+](=O)[O-])cc3)[nH]c21 | – | > 100 | – | – | – | > 100 | > 100 | > 100
7 | Cc1cc(C2(O)C=C(C(C)(C)C)C(=O)C(C(C)(C)C)=C2)c(C)cc1C1(O)C=C(C(C)(C)C)C(=O)C(C(C)(C)C)=C1 | > 100 | > 100 | > 100 | > 100 | – | > 100 | > 100 | > 100
8 | O=C(Cc1ccccc1)NN1C(=O)/C(=C\c2cccc(O)c2)SC1=Nc1ccccc1 | > 100 | > 100 | > 100 | > 100 | > 100 | – | > 100 | > 100
9 | O=C(NCCCCCCNCc1cccc2ccccc12)Nc1cccc2ccccc12 | > 100 | > 100 | – | > 100 | > 100 | > 100 | > 100 | > 100
10 | CN(C)Cc1cc(C(=O)/C=C/c2ccccc2Cl)cc(CN(C)C)c1O | – | 34 | 48.2 | 34.1 | 26.3 | 14.4 | 23.3 | 27.2
11 | OCC1OC(n2cnc3c(Cl)nc(Nc4ccccc4)nc32)CC1O (stereo unspecified) | > 100 | > 100 | > 100 | > 100 | > 100 | 3.4 | > 100 | > 100
12 | Cc1cc(C)cc(Nc2cc(=O)[nH]c(=O)[nH]2)c1 | > 100 | > 100 | > 100 | > 100 | > 100 | – | > 100 | > 100
13 | COC(=O)[C@@H]1CCCN1CCN1CCC[C@H]1C(=O)OC | > 100 | > 100 | – | > 100 | > 100 | > 100 | > 100 | > 100
14 | CC1=NN(c2ccc(S(=O)(=O)O)cc2)C2(C1)SCC(=O)N2c1nc2ccccc2s1 (stereo unspecified) | > 100 | > 100 | > 100 | > 100 | > 100 | > 100 | > 100 | > 100
15 | COc1ccc(/C=N/N=C(\N)NO)c(O)c1 | > 10 | > 10 | > 10 | > 10 | 4.49 | 9.58 | > 10 | > 10
16 | O=C1c2ccccc2-c2nc(-c3cccc([N+](=O)[O-])c3)nnc21 | > 100 | > 100 | 35.9 | 5.49 | 4.05 | 12.6 | 73.2 | > 100
17 | O=C1NC(N/N=C/C(O)C(O)C(O)CO)=N/C1=C\c1ccco1 (stereo unspecified) | > 100 | > 100 | > 100 | > 100 | > 100 | > 100 | > 100 | > 100
18 | COc1ccc(Nc2nc(NS(=O)(=O)c3cc(C)c(Cl)cc3S)n[nH]2)cc1 | > 100 | > 100 | > 100 | > 100 | > 100 | > 100 | > 100 | > 100
19 | Cc1ccc2c(=O)cc(-c3cccs3)[nH]c2n1 | > 67.7 | 33.1 | 63.7 | 3.78 | 5.65 | > 100 | > 100 | 82.2
20 | Nc1c(Cl)ncnc1N[C@@H]1C[C@H]1CO | > 100 | > 100 | – | > 100 | > 100 | > 100 | > 100 | > 100
21 | O=c1oc2ccccc2c(Nc2ccc3c(c2)Oc2ccccc2O3)c1[N+](=O)[O-] | 79.1 | 36.4 | 48.1 | > 100 | > 100 | > 100 | > 100 | 40.4
22 | COC(=O)[C@H](Cc1ccccc1)NC(=O)[C@H](Cc1ccccc1)NC(=O)[C@@H]1CCCN1C(=O)N[C@H]1C2C=CC(C2)C1C(=O)N1CCC[C@H]1C(=O)N[C@@H](C)C(=O)N[C@H](C(=O)OC)C(C)C (stereo partly specified) | > 100 | – | > 100 | > 100 | > 100 | > 100 | > 100 | > 100
23 | COC(=O)C1=C2SCc3cccc(c3)CSC3=C(C(=O)OC)SC(=C(S2)S1)S3 | > 100 | – | > 100 | > 100 | > 100 | > 100 | > 100 | > 100
24 | CC1=COC(C)(C=C(C#N)C#N)CC1 (stereo unspecified) | > 100 | 51.1 | > 100 | – | > 100 | – | > 100 | > 100
25 | Cc1cn(C2CC(n3cc(Cn4cc(Br)c(=O)[nH]c4=O)nn3)C(CO)O2)c(=O)[nH]c1=O (stereo unspecified) | > 100 | > 100 | – | > 100 | > 100 | > 100 | > 100 | > 100
26 | CCC1(C)N=C(c2cnccn2)NN1c1ccc(Cl)cc1 (stereo unspecified) | 74.5 | > 100 | > 100 | > 100 | > 100 | > 100 | > 100 | > 100
27 | Nn1c(CCCCCCCCc2nnc(COc3ccc(Cl)cc3)n2N)nnc1COc1ccc(Cl)cc1 | – | – | > 100 | – | > 100 | 35.6 | > 100 | > 100

Row | SMILES | TGI (T-47D breast) [µM] | TGI (SF-539 CNS) [µM] | TGI (NCI-H226 lung) [µM] | TGI (MDA-N) [µM] | TGI (MDA-MB-435) [µM] | TGI (CAKI-1 renal) [µM] | TGI (M14 melanoma) [µM] | TGI (SNB-19 CNS) [µM]
28 | N#Cc1nc(-c2cccs2)oc1N | > 100 | > 100 | > 100 | > 100 | > 100 | 53.1 | > 100 | > 100
29 | C1CCC2C(C1)CCCC2NC1=NCCO1 (stereo unspecified) | > 100 | > 100 | > 100 | > 100 | > 100 | > 100 | > 100 | > 100
30 | CCOC(=O)/C1=C(\C)N(c2ccc(C)cc2)C(=O)c2ccccc2C(=O)c2c(OC(C)=O)ccc(OC(C)=O)c21 | 76.5 | 69.1 | 65.7 | – | 41.5 | 38.5 | 54.3 | 90.1
31 | CCC1(C(=O)OC(C)(C)C)OC12C(C)CCCC2C (stereo unspecified) | > 100 | > 100 | > 100 | > 100 | > 100 | > 100 | > 100 | > 100
32 | CCOC(=O)/C=C(\C(=O)OCC)n1cc(C)c(=O)n(Cc2cnnn2CCCCOC(C)=O)c1=O | > 51 | 5.66 | 30.4 | 55.8 | 26.1 | 8.73 | 86.2 | > 66.5
33 | N#Cc1c(-c2ccccc2)nc(-c2ccccc2)sc1=S | > 100 | > 100 | > 100 | > 100 | > 100 | > 100 | > 100 | > 100
34 | CCCSc1ccc2[nH]c(/N=C/c3ccco3)cc2c1 | > 100 | 42.5 | – | – | > 100 | > 100 | > 100 | > 100
35 | O=c1[nH]nc(Cc2ccc([N+](=O)[O-])cc2)n1CCO | > 100 | > 100 | > 100 | > 100 | > 100 | > 100 | > 100 | > 100
36 | O=C(O)CC[N+]1=CCC(c2ccccc2)(c2ccccc2)O1 | > 100 | > 100 | > 100 | > 100 | > 100 | > 100 | > 100 | > 100
37 | C1CNCCNCCN1 | > 100 | > 100 | > 100 | > 100 | > 100 | > 100 | > 100 | > 100
38 | NP(=O)(OCC1=CC(=O)c2ccccc2C1=O)N(CCBr)CCBr (stereo unspecified) | 29.7 | 18.7 | 25.8 | 3.66 | 4.74 | 8.1 | – | > 55.1
39 | CCC(C#N)NC(=O)NC(C#N)CC (stereo unspecified) | > 100 | > 100 | > 100 | > 100 | > 100 | > 100 | > 100 | > 100
40 | CN(NC(=O)c1cccs1)C1=NCCCN1 | > 100 | > 100 | > 100 | > 100 | > 100 | – | > 100 | > 100
41 | CC1Cn2c(nc3ccccc32)NC1=O (stereo unspecified) | > 100 | > 100 | > 100 | > 100 | > 100 | > 100 | > 100 | > 100
42 | O=c1c2c([N+](=O)[O-])cccc2nc2[nH]c3ccccc3n12 | 63.4 | 25.3 | > 75 | > 75 | > 75 | 45 | > 75 | > 75
43 | C/C=C/C(O)P1(=O)N(Cc2ccccc2)[C@@H]2CCCC[C@H]2N1Cc1ccccc1 (stereo partly specified) | > 25 | > 25 | > 25 | > 25 | > 25 | > 25 | > 25 | > 25
44 | CNC(=O)Oc1ccc(-c2cn3cc(OC(=O)NC)ccc3n2)cc1 | > 100 | > 100 | > 100 | > 100 | > 100 | > 100 | > 100 | > 100
45 | CC(=O)c1ccc2c3c1[C@@H]1O[C@@H]1c1cccc(c1-3)[C@@H]1O[C@H]21 | 23.7 | – | > 95.1 | 39.9 | 25.7 | 15 | 22.3 | > 60.9
46 | Cc1ccc2c(c1)[nH]c1cc(C(F)(F)F)ccc1[p+]2=O (stereo unspecified) | > 100 | > 100 | 70.5 | > 100 | > 100 | > 100 | > 100 | 76.7
47 | O=c1nc2c(c(-c3ccccc3Cl)[nH]1)COC/C2=C\c1ccccc1Cl | > 100 | > 100 | > 100 | > 100 | > 100 | > 100 | > 100 | > 100
48 | C[C@H](N)C(=O)Nc1ccc(-c2nc3ccccc3s2)cc1 | 36 | 52.3 | 97.8 | 38.4 | 30.7 | 36.3 | 24.1 | 49.6
49 | CC(=O)O[C@H]1CC[C@@]2(C)C(=CC[C@H]3[C@@H]4C[C@H](N5CCCC5)[C@H](OC(C)=O)[C@@]4(C)CC[C@@H]32)C1 | > 100 | > 65.3 | > 100 | > 84.4 | 82.4 | > 100 | 33.9 | > 100
50 | Cc1ccn2c(=O)cc(-c3ccccc3)nc2c1 | > 100 | > 100 | > 100 | > 100 | – | – | > 100 | > 100
51 | CCN1C(=O)C(=C/C=C/c2ccc([N+](=O)[O-])cc2)C(=O)N(CC)C1=S | > 100 | 40.1 | > 100 | 67 | 47.7 | 68.7 | > 100 | > 100
52 | COc1cc(C2SCC(=O)N2c2ccc(-c3ccc(-n4c(-c5ccccc5)nc5ccccc5c4=O)cc3)cc2)cc(OC)c1OC (stereo unspecified) | > 100 | > 100 | > 100 | – | > 100 | 45.8 | > 100 | > 100
53 | NC(=O)NNC(=O)c1nc[nH]c1[N+](=O)[O-] | > 100 | > 100 | > 100 | > 100 | > 100 | > 100 | > 100 | –
